Activity calls are given as the source filed them. The rule behind the calls is not given here.
Legend:
[1] = tested on: Influenza A virus; assay: Antiviral activity against influenza A virus by plaque inhibition assay; format: functional, organism-based
[2] = tested on: Staphylococcus aureus; assay: Antibacterial activity against methicillin-resistant Staphylococcus aureus; format: functional, organism-based
[3] = tested on: HCT-116; assay: Cytotoxicity against human HCT116 cells; format: functional, cell-based
[4] = tested on: Plasmodium falciparum; assay: Antimalarial activity against Plasmodium falciparum 3D7 MRA-102, MR4/ATCC infected in human erythrocytes assessed as inhibition of parasite proliferation after 72 hrs by SYBR green assay; format: functional, organism-based

Compound | Activity [1] | Activity [2] | Activity [3] | IC50 [4]
CC(C)=CCC[C@@](C)(O)[C@@H](O)CC/C(C)=C/COC[C@H]1O[C@@H](N2CCC(=O)NC2=O)[C@H](O)[C@@H]1O | inactive | inactive | inactive | 
CC(C)=CCC/C(C)=C/COC[C@H]1O[C@@H](N2CCC(=O)NC2=O)[C@H](O)[C@@H]1O | Active |  |  | 
CC(C)=CCC[C@@]1(C)O[C@@H]1CC/C(C)=C/COC[C@H]1O[C@@H](N2CCC(=O)NC2=O)[C@H](O)[C@@H]1O | inactive | inactive | inactive | 69.3 µM

Reference: ChEMBL document CHEMBL2417478, “Farnesides A and B, sesquiterpenoid nucleoside ethers from a marine-derived Streptomyces sp., strain CNT-372 from Fiji” (J Nat Prod, 2013)
